Laboratory results: US8435549B2, “Halogen alkoxy spirocyclic tetramic and tetronic acid derivatives” (Bayer Cropscience AG, priority 2007, dated 2013)

Key:
[1] = system: green peach aphid (Myzus persicae); test: Enhancement of activity by ammonium/phosphonium salts in combination with penetrants, Myzus persicae test; type: in vivo
Procedure: To produce a suitable preparation of active compound, 1 part by weight of active compound is mixed with the stated amounts of solvent and emulsifier, and the concentrate is diluted with water to the desired concentration. For application with ammonium or phosphonium salts and penetrants (rapeseed oil methyl ester 500 EW) these are added to the spray liquor in each case in a concentration of 1000 ppm.
Bell pepper plants (Capsicum annuum) which are heavily infested by the green peach aphid (Myzus persicae) are treated by spraying to runoff point with the active compound preparation of the desired concentration. After the desired period of time, the kill in % is determined. 100% means that all animals have been killed; 0% means that none of the animals have been killed.

[2] = system: cotton aphid (Aphis gossypii); test: Enhancement of activity by ammonium/phosphonium salts, Aphis gossypii test; type: in vivo; conditions: Aphis gossypii on cotton, active compound 4 ppm
Procedure: To produce a suitable preparation of active compound, 1 part by weight of active compound is mixed with the stated amounts of solvent and emulsifier, and the concentrate is diluted with emulsifier-containing water to the desired concentration. For application with ammonium or phosphonium salts, these are added to the spray liquor in a concentration of 1000 ppm.
Cotton plants (Gossypium hirsutum) which are heavily infested by the cotton aphid (Aphis gossypii) are treated by spraying to runoff point with the active compound preparation of the desired concentration.
After the desired period of time, the kill in % is determined. 100% means that all the aphids have been killed; 0% means that none of the aphids have been killed.

SMILES: Cc1cc(Cl)cc(C)c1C1=C(O)[C@]2(CC[C@H](OCC(F)(F)F)CC2)NC1=O [Example I-1-a-1]
- Kill rate/% after 6 days ([1]; 0.8 ppm, +AS (1000 ppm)): 0%
- Kill rate/% after 6 days ([1]; 0.8 ppm, +RME (1000 ppm)): 0%
- Kill rate/% after 6 days ([1]; 0.8 ppm, +RME + AS (1000 ppm each)): 95%
- Kill rate/% after 6 days ([1]; 0.8 ppm, no additive): 0%
- Kill rate/% after 6 days ([1]; 4 ppm, +AS (1000 ppm)): 90%
- Kill rate/% after 6 days ([1]; 4 ppm, +RME (1000 ppm)): 99%
- Kill rate/% after 6 days ([1]; 4 ppm, +RME + AS (1000 ppm each)): 100%
- Kill rate/% after 6 days ([1]; 4 ppm, no additive): 95%
- Kill rate/% after 6 days ([2]; +AS (1000 ppm)): 95%
- Kill rate/% after 6 days ([2]; without AS): 25%
